Experimental data reported in patent US11053221B2, “Substituted pyrimidines for inhibiting embryonic leucine zipper kinase activity” (Arrien Pharmaceuticals LLC, priority 2018, dated 2021).
Counter-ions that a name gives are not always drawn.

Legend:
FLT3 = target: T1, FLT3 (Homo sapiens, UniProt P36888); test: HotSpot kinase assay, FLT3; assay type: biochemical; settings: HotSpot radiometric 33P ATP assay, 25° C., 120 min
T1 construct: purchased Reaction Biology Corporation
T1 sequence (P36888 27-993): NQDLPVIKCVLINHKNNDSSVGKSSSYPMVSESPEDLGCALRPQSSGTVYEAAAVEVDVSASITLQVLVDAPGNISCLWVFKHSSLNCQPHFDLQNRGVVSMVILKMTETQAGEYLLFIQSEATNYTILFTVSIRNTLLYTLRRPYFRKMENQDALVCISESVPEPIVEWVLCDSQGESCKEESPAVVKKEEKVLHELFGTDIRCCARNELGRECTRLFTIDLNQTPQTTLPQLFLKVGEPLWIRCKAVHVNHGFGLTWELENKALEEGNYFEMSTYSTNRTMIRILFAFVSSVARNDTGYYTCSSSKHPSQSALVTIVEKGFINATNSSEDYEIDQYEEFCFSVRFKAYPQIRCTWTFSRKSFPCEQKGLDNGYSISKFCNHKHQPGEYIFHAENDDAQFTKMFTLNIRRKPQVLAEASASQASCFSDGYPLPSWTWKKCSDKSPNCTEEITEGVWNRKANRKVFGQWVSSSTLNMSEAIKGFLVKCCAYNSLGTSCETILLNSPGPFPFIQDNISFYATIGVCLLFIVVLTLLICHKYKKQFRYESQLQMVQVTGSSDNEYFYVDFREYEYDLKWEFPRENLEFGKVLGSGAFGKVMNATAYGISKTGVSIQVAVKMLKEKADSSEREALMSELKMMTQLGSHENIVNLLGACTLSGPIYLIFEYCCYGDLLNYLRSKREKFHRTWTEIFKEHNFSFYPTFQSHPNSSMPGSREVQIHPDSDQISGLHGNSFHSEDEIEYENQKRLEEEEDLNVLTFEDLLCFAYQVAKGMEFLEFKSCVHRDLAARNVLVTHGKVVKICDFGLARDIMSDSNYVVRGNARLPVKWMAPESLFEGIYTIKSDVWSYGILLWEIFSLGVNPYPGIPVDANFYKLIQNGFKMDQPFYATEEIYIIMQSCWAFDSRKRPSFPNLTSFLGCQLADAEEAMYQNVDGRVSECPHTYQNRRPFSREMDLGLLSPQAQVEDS
Procedure: (§1) In vitro profiling of the MELK, MELK (T460M) kinase panel was performed at Reaction Biology Corporation using the “HotSpot” assay platform. In vitro profiling of the FLT3, FLT3 mutant forms; FLT3 (D835Y), FLT3 (F594R595insR), FLT3 (F594R595insREY), FLT3 (ITD), FLT3 (ITD)-NPOS, FLT3 (ITD)-W51 and FLT3 (R595_E596insEY) kinase panel is performed in the same manner.
(§2) Briefly, specific kinase/substrate pairs along with required cofactors were prepared in reaction buffer; 20 mM Hepes (pH 7.5), 10 mM MgCl2, 1 mM EGTA, 0.02% Brij35, 0.02 mg/mL BSA, 0.1 mM Na3VO4, 2 mM DTT, 1% DMSO. Compounds were delivered into the reaction, followed ˜20 min later by addition of a mixture of ATP (Sigma) and ^33P ATP (PerkinElmer) to a final concentration of […]. Reactions were carried out at 25° C. for 120 min, followed by spotting of the reactions onto P81 ion exchange filter paper (Whatman). Unbound phosphate was removed by extensive washing of filters in 0.75% phosphoric acid. […] IC50 values and curve fits were obtained using Prism (GraphPad Software).

MELK = target: T2, MELK (Homo sapiens, UniProt Q14680); test: HotSpot kinase assay, MELK; assay type: biochemical; settings: HotSpot radiometric 33P ATP assay, 25° C., 120 min
T2 construct: purchased Reaction Biology Corporation
T2 sequence (Q14680 whole entry): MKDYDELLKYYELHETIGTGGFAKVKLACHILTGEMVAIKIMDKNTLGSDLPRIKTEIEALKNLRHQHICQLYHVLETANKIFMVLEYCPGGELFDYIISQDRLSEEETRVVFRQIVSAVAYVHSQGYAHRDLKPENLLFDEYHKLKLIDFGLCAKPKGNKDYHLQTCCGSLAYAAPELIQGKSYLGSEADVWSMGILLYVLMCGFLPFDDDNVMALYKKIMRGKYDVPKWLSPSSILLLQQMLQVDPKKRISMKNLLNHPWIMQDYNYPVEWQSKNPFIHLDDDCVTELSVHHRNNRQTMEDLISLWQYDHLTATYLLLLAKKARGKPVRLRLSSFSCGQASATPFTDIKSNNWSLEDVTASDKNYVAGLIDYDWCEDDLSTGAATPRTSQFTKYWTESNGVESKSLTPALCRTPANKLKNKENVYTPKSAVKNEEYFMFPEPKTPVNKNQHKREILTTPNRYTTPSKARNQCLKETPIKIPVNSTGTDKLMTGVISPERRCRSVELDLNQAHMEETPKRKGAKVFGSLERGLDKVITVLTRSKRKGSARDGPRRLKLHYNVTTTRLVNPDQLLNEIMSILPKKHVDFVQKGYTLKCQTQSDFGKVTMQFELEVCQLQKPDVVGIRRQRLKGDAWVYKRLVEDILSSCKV
Procedure: as §1, §2

Structure (SMILES) | IC50 (FLT3) | IC50 (MELK)
N[C@H]1CC[C@@H](COc2cncnc2-c2cnn(-c3ccccc3C(F)(F)F)c2)CC1 [Compound I-2, (1s,4s)-4-(((4-(1-(2-(trifluoromethyl)phen-yl)-1H-pyrazol-4-yl)pyrimidin-5-yl)oxy)methyl)cyclo-hexan-1-amine] | 200 to 1000 nM | > 1000 nM
N[C@H]1CC[C@@H](COc2cncnc2-c2cnn(-c3ccccc3OC(F)(F)F)c2)CC1 [Compound I-3, (1s,4s)-4-(((4-(1-(2-(trifluoromethoxy)phen-yl)-1H-pyrazol-4-yl)pyrimidin-5-yl)oxy)methyl)cyclo-hexan-1-amine] | 200 to 1000 nM | 200 to 1000 nM
N[C@@H]1CC[C@H](COc2cncnc2-c2cnn(-c3ccccc3F)c2)C1 [Compound I-6, (1R,3S)-3-(((4-(1-(2-fluorophenyl)-1H-pyrazol-4-yl)pyrimidin-5-yl)oxy)methyl)cyclo-pentan-1-amine] | 200 to 1000 nM | 200 to 1000 nM
CN(C)[C@@H]1CC[C@H](COc2cncnc2-c2cnn(-c3ccccc3F)c2)C1 [Compound I-7, (1R,3S)-3-(((4-(1-(2-fluorophenyl)-1H-pyrazol-4-yl)pyrimidin-5-yl)oxy)methyl)-N,N-dimethylcyclopentan-1-amine] | 200 to 1000 nM | 200 to 1000 nM
NC1CCN(c2cncnc2-c2cnn(-c3ccccc3F)c2)CC1 [Compound I-10, 1-(4-(1-(2-fluorophenyl)-1H-pyrazol-4-yl)pyrimidin-5-yl)piperidin-4-amine] | 200 to 1000 nM | > 1000 nM
N[C@H]1CC[C@@H](CNc2cncnc2-c2cnn(-c3ccccc3F)c2)CC1 [Compound I-11, N-(((1s,4s)-4-aminocyclohexyl)meth-yl)-4-(1-(2-fluorophenyl)-1H-pyrazol-4-yl)pyrimidin-5-amine] | 200 to 1000 nM | > 1000 nM
N[C@H]1CC[C@@H](CNc2cncnc2-c2cnn(-c3c(F)cccc3F)c2)CC1 [Compound I-12, N-(((1s, 4s)-4-aminocyclohexyl)methyl)-4-(1-(2,6-difluorophenyl)-1H-pyrazol-4-yl)-pyrimidin-5-amine trifluoroacetate] | 200 to 1000 nM | > 1000 nM
N[C@@H]1CC[C@@H]1COc1cncnc1-c1cnn(-c2ccccc2F)c1 [Compound I-13, (1R,2S)-2-(((4-(1-(2-fluorophenyl)-1H-pyrazol-4-yl)pyrimidin-5-yl)oxy)methyl)cyclo-butan-1-amine] | > 1000 nM | > 1000 nM

Next, values leading:

IC50 (FLT3) | IC50 (MELK) | Structure (SMILES)
< 200 nM | < 200 nM | N[C@H]1CC[C@@H](COc2cncnc2-c2cnn(-c3c(F)cccc3F)c2)CC1 [Compound I-1, (1s,4s)-4-(((4-(1-(2,6-difluorophenyl)-1H-pyrazol-4-yl)pyrimidin-5-yl)oxy)methyl)cyclo-hexan-1-amine]
< 200 nM | 200 to 1000 nM | N#Cc1ccccc1-n1cc(-c2ncncc2OC[C@H]2CC[C@@H](N)CC2)cn1 [Compound I-4, 2-(4-(5-(((1s,4s)-4-aminocyclohexyl)meth-oxy)pyrimidin-4-yl)-1H-pyrazol-1-yl)benzonitrile]
< 200 nM | < 200 nM | COc1ccccc1-n1cc(-c2ncncc2OC[C@H]2CC[C@@H](N)CC2)cn1 [Compound I-5, (1s,4s)-4-(((4-(1-(2-methoxyphenyl)-1H-pyrazol-4-yl)pyrimidin-5-yl)oxy)methyl)cyclo-hexan-1-amine]
< 200 nM | < 200 nM | CN(C)C[C@@H]1CC[C@H](COc2cncnc2-c2cnn(-c3ccccc3F)c2)C1 [Compound I-8, 1-((1R,3S)-3-(((4-(1-(2-fluorophenyl)-1H-pyrazol-4-yl)pyrimidin-5-yl)oxy)methyl)cyclo-pentyl)-N,N-dimethylmethanamine]
< 200 nM | 200 to 1000 nM | CN(C)[C@H]1CC[C@@H](COc2cncnc2-c2cnn(-c3ccccc3F)c2)CC1 [Compound I-9, (1s,4s)-4-(((4-(1-(2-fluorophenyl)-1H-pyrazol-4-yl)pyrimidin-5-yl)oxy)methyl)-N,N-dimethylcyclohexan-1-amine]
